Calls of active or inactive are those of the source.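 The calls were made as follows: active = target gene mRNA expression lowered over 20% below the solvent-only control in each of three panels; inactive = the rest.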
Experiments:
Test in all cases: RORC target gene expression suppression, late-stage follow-up, mechanism study for RORC inverse agonist project, cell-based, qPCR, endogenous IL-17 and IL-23R, fluorescence (AID 624278)
IL-17 = settings: EL-4 murine T cells, IL-17/IL-23R qPCR, PMA/ionomycin, at 5 µM, stronger effect = lower value
IL-23R = settings: EL-4 murine T cells, IL-17/IL-23R qPCR, PMA/ionomycin, at 5 µM, stronger effect = lower value
[1] = target: Interleukin-17A (Mus musculus) (UniProt Q62386); settings: EL-4 murine T cells, IL-17/IL-23R qPCR, PMA/ionomycin; IL-17; Protein
Sequence of Interleukin-17A (Mus musculus) (Q62386 whole entry, looked up): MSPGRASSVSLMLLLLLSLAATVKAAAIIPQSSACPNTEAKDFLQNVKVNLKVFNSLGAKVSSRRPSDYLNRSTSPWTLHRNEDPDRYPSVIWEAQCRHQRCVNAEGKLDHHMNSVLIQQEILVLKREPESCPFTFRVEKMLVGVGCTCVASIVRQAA

Question: Which results are given for `OC(c1ccc(-c2ccc(CN3CCN(Cc4ccncc4)CC3)cc2)c(F)c1)(C(F)(F)F)C(F)(F)F`?
Answer: relative protein level (IL-17; IL-17 protein level): 0.6; relative gene expression (IL-17; mRNA): 0.1; relative gene expression (IL-23R): 0.2; outcome [1]: active
